Source: patent US10758620B2, “Potentiated antimicrobial agents” (SEPTEOS, priority 2014, dated 2020)
Read-outs that look alike come from different tables or passages of the source.

Key:
Type in all cases: cell-based
[1] = test system: Strain 10168, methicillin resistant S. aureus (MRSA); test: Resistance test (resistant mutants), Strain 10168; conditions: MRSA, text after Table 16
Description: (§1) After 48 h incubation, the presence or absence of colonies likely to be resistant mutants is observed.
(§2) ED control or DMSO=only distilled water or DMSO is added
(§3) Ciprofloxacine DMSO: addition of Ciprofloxacine in DMSO

[2] = test system: Strain 09003, methicillin resistant S. aureus (MRSA); test: Resistance test (resistant mutants), Strain 09003; conditions: MRSA, text after Table 15
Description: as §1, §2, §3

[3] = test system: Staphylococcus; test: MIC measurement in agar medium (dilution test), Staph; conditions: potentiator alone
Text: Inhibitory minimum concentration measurement tests are made in a solid agar medium according to international standards in force (CLSI M7-A9 Jan 12 standards): dispersion of the compounds to be tested in a Mueller Hinton gelose. An adaptation relating to the hydrophobicity of compounds and compositions is however necessary to disperse them in the medium: dilution of the compounds in a solvent. The compounds and compositions incorporated in the agar medium can be diluted beforehand in one or more solvents (Tween® 80 diluted with water, Tween® 80 diluted with […], DMSO diluted with water). The strains are deposited onto the agar surface with a steers apparatus. In the examples, different dissolution methods for products are tested in parallel to circumvent the problems of water/solvent distribution coefficient of the molecules (antimicrobial and potentiator) whereas the bacteria grow only in the aqueous phase. The technical requirement will not intervene in in vivo tests. The same dilution methods can be implemented in a liquid medium (microplates and tubes). The same methodology is implemented with fungi. […] MIC measurement: the minimum inhibitory concentration measurement tests are made in an agar solid medium according to international standards in force (CLSI standards), according to the previously defined protocol. […] The booster contribution as compared with the MIC of the antibiotic alone is expressed in a (MIC ATB)/(MIC ATB+booster) ratio. Thereby, gains are defined: […]

[4] = test system: MSSA 8237; test: Etest, staphylococci MSSA 8237; conditions: for MIC: Staphylococcus aureus, MSSA
Text: (§4) The corresponding tests are made based on the usual MIC test: the Etest® (Biomerieux) strip is deposited onto the surface of a seeded agar medium in which the booster has been incorporated. This test enables solvent effect risks, that is a possible interaction with the solvent used in vitro, to be minimised.
(§5) The control corresponds to the test made without cineol. A control is made in each solvent tested: distilled water, Tween/water and DMSO.
(§6) ED control=antibiotic alone in distilled water
(§7) DMSO control=antibiotic alone in DMSO
(§8) TE control=antibiotic alone in Tween® 80

[5] = test system: Strain 10168 SARM; test: Growth test in liquid medium; conditions: compound at a very low dose
Description: The growth tests are made in a liquid medium with prior dispersing the antibiotic booster in a suitable solvent (tween/water).
4XMIC means that the concentration of antibiotic is 4 times higher than its MIC, measured when used alone on the strain considered.

[6] = test system: Pseudomonas Strain 08132; test: Etest, Pseudomonas Strain 08132; conditions: booster 1 mg/L in agar, Tween/water
Text: as §4, §5, §6, §7, §8

[7] = test system: E. Coli Strain 8150; test: Etest, E. Coli Strain 8150; conditions: for MIC: Escherichia coli, read-out: MIC of Pipera tazo, Strain 8150; for MIC of Meropenem / MIC of Tigecycline / MIC of Pipera tazo: Strain 8150
Text: as §4, §5, §6, §7, §8

[8] = test system: methicillin resistant S. aureus (MRSA) strains 09003, 10168; test: MIC of the potentiator used alone on the strains of Examples 3 and 4; conditions: Staphylococcus aureus, on these strains
[9] = MSSA 8237, booster 1 mg/L in agar, DMSO
[10] = MSSA 8237, booster 1 mg/L in agar, Tween/water
[11] = MSSA 8237, booster 4 mg/L in agar, DMSO
[12] = MSSA 8237, booster 4 mg/L in agar, Tween/water
[13] = MSSA 8237, booster 16 mg/L in agar, DMSO
[14] = MSSA 8237, booster 16 mg/L in agar, Tween/water
[15] = booster 1 mg/L in agar, Tween/water
[16] = booster 4 mg/L in agar, Tween/water
[17] = booster 16 mg/L in agar, Tween/water

What does the source list for `CC(=O)OCC=Cc1ccccc1` [AC, cinnamyl acetate]?
occurrence of mutants on addition of the compound to ciprofloxacine [1]: does not cause the occurrence of mutants any longer; occurrence of mutants on addition of the compound to ciprofloxacine [2]: does not cause the occurrence of mutants any longer; MIC 50 ([3]; solvent DMSO): 1.00%; MIC 90 ([3]; solvent DMSO): 1.00%; MIC 50 ([3]; solvent Tween/prop glyc): >1%; MIC 90 ([3]; solvent Tween/prop glyc): >1%; MIC 50 ([3]; solvent Tween/water): >1%; MIC 90 ([3]; solvent Tween/water): >1%; MIC 50 ([3]; solvent water/water): >1%; MIC 90 ([3]; solvent water/water): >1%; MIC of Cefoxitine [4, 9]: 2 mg/L; MIC of Meropenem [4, 9]: 0.25 mg/L; MIC of Penicillin G [4, 9]: 0.25 mg/L; MIC of Cefoxitine [4, 10]: 3 mg/L; MIC of Meropenem [4, 10]: 0.25 mg/L; MIC of Penicillin G [4, 10]: 0.5 mg/L; MIC of Cefoxitine [4, 11]: 3 mg/L; MIC of Meropenem [4, 11]: 0.19 mg/L; MIC of Penicillin G [4, 11]: 0.19 mg/L; MIC of Cefoxitine [4, 12]: 2 mg/L; MIC of Meropenem [4, 12]: 0.19 mg/L; MIC of Penicillin G [4, 12]: 0.125 mg/L; MIC of Cefoxitine [4, 13]: <0.016 mg/L; MIC of Meropenem [4, 13]: <0.002 mg/L; MIC of Penicillin G [4, 13]: <0.002 mg/L; MIC of Cefoxitine [4, 14]: 1.5 mg/L; MIC of Meropenem [4, 14]: 0.064 mg/L; MIC of Penicillin G [4, 14]: 0.064 mg/L; MIC ([4]; MSSA 8237, booster 1 mg/L in agar, DMSO, read-out: MIC of Clindamycine): 0.047 µg/mL; MIC ([4]; MSSA 8237, booster 1 mg/L in agar, Tween/water, read-out: MIC of Clindamycine): 0.047 µg/mL; MIC ([4]; MSSA 8237, booster 4 mg/L in agar, DMSO, read-out: MIC of Clindamycine): 0.047 µg/mL; MIC ([4]; MSSA 8237, booster 4 mg/L in agar, Tween/water, read-out: MIC of Clindamycine): 0.064 µg/mL; MIC ([4]; MSSA 8237, booster 16 mg/L in agar, DMSO, read-out: MIC of Clindamycine): < 0.016 µg/mL; MIC ([4]; MSSA 8237, booster 16 mg/L in agar, Tween/water, read-out: MIC of Clindamycine): 0.125 µg/mL; MIC ([4]; read-out: MIC of Pipera tazo, MSSA 8237, booster 1 mg/L in agar, DMSO): 0.75 µg/mL; MIC ([4]; read-out: MIC of Pipera tazo, MSSA 8237, booster 1 mg/L in agar, Tween/water): 1 µg/mL; MIC ([4]; read-out: MIC of Pipera tazo, MSSA 8237, booster 4 mg/L in agar, DMSO): 0.5 µg/mL; MIC ([4]; read-out: MIC of Pipera tazo, MSSA 8237, booster 4 mg/L in agar, Tween/water): 0.5 µg/mL; MIC ([4]; read-out: MIC of Pipera tazo, MSSA 8237, booster 16 mg/L in agar, Tween/water): 0.38 µg/mL; effect of the compound on bactericidal rate of Augmentin [5]: enables the bactericidal rate of Augmentin® to be accelerated; MIC of Meropenem [6]: 8 mg/L; MIC ([7]; booster 1 mg/L in agar, DMSO): 0.75 µg/mL; MIC [7, 15]: 0.5 µg/mL; MIC of Meropenem ([7]; booster 1 mg/L in agar, DMSO): 0.023 mg/L; MIC of Tigecycline ([7]; booster 1 mg/L in agar, DMSO): 0.064 mg/L; MIC of Meropenem [7, 15]: 0.016 mg/L; MIC of Tigecycline [7, 15]: 0.064 mg/L; MIC of Meropenem ([7]; booster 4 mg/L in agar, DMSO): <; MIC of Pipera tazo ([7]; booster 4 mg/L in agar, DMSO): <; MIC of Tigecycline ([7]; booster 4 mg/L in agar, DMSO): <; MIC of Meropenem [7, 16]: <; MIC of Pipera tazo [7, 16]: <; MIC of Tigecycline [7, 16]: <; MIC of Meropenem ([7]; booster 16 mg/L in agar, DMSO): <; MIC of Pipera tazo ([7]; booster 16 mg/L in agar, DMSO): <; MIC of Tigecycline ([7]; booster 16 mg/L in agar, DMSO): <; MIC of Meropenem [7, 17]: <; MIC of Pipera tazo [7, 17]: <; MIC of Tigecycline [7, 17]: <; MIC [8]: > 10000 µg/mL
